# Assay results published in patent US20080220056A1, “Treatment for liver disease” (UNIVERSITY OF SOUTHAMPTON, priority 2002, published 2008).
# Legend:
# [1] = test system: NFκB responsive gene promoters; test: NFκB responsive gene promoter activity; assay type: cell-based; conditions: 24 hours, versus untreated cells
# [2] = test system: activated hepatic stellate cells; test: Apoptosis of activated hepatic stellate cells by acridine orange, sulfasalazine; assay type: cell-based; conditions: 24 hours
# Protocol: (§1) Treatment of activated hepatic stellate cells with Sulfasalazine (at a concentration of 0.5, 1 or 2 mM) for 24 hours induced a dose-dependent increase in apoptosis visualised by both Acridine Orange staining (30%, 45% and 55% respectively).
# caspase 3 activity = test: Caspase 3 activity, sulfasalazine-treated hepatic stellate cells; assay type: cell-based; conditions: 0.5, 1 or 2 mM
# Protocol: as §1
# [3] = test system: NFκB DNA binding activity; test: Electromobility shift assay, sulfasalazine-treated hepatic stellate cells; assay type: cell-based; conditions: day 7 HSC; 0.5, 1 and 2 mM for 24 hours
# [4] = test system: experimentally induced fibrosis; test: Recovery from carbon tetrachloride induced fibrosis in rats, sulfasalazine; assay type: in vivo, rat
# Protocol: Adult male Sprague Dawley rats were treated twice weekly for six weeks by intraperitoneal injection of the hepatotoxin carbon tetrachloride and then allowed to recover for 24 hours prior to treatment with either vehicle control or sulfasalazine. Animals were then left to recover for either a further 16 or 72 hours.
# [5] = test system: human hepatic stellate cells; test: Morphology of culture-activated human hepatic stellate cells (light microscopy); assay type: cell-based
# From the text: (§2) Rat hepatic stellate cells (HSCs) were isolated by pronase/collagenase perfusion and purified by isopycnic density centrifugation in Opti-prep™ (Nycomed, Amersham, England) and elutriation essentially as previously described (Bahr et al., Hepatology (1999) 29:839-848). Human hepatic stellate cells were isolated from discarded resected liver via a similar protocol (Trim et al., J. Biol. Chem., (2000) 275:6657-6663). The use of human liver tissue for scientific investigation was approved by the UK South and West Local Research Ethics Committee and was subject to patient consent.
# (§3) It has been shown recently that liver myofibroblasts may contribute to liver fibrogenesis and that liver myofibroblasts may have the potential to contaminate passaged hepatic stellate cell cultures (Knittel et al., Gastronenterology, (1999) 117:1205-1221). In this study, only primary cultures of hepatic stellate cells were used, which were desmin and glial fibrillary acid protein positive (markers shown to be expressed in hepatic stellate cells, but not liver myofibroblasts—Knittel et al., supra).
# Cells were treated with gliotoxin dissolved in DMSO vehicle (added to medium from a 2000-fold molar concentrated stock). Control cells received DMSO vehicle only (i.e., 0.05% vol/vol). […] Protein contents of wells were determined using the Lowry assay (Lowry et al., J. Biol. Chem., (1951)193: 265-275). […]
# [6] = test system: rat hepatic stellate cells; test: Morphology and detachment of culture-activated rat hepatic stellate cells (light microscopy); assay type: cell-based
# From the text: as §2, §3
# Cells were treated with gliotoxin dissolved in DMSO vehicle (added to medium from a 2000-fold molar concentrated stock). Control cells received DMSO vehicle only (i.e., 0.05% vol/vol). All other additions to culture medium were made from concentrated stocks dissolved in DMSO or by direct addition to culture medium. Protein contents of wells were determined using the Lowry assay (Lowry et al., J. Biol. Chem., (1951)193: 265-275).
# Culture activated rat (14 day) and human (24 day) hepatic stellate cells were treated with DMSO solvent control or 1.5 μMol/L gliotoxin. […] Hepatic stellate cells changed from a flattened fibroblastic phenotype with distinct cell-cell interfaces to a substratum detached, rounded, and blebbed morphology.
# [7] = test system: rat hepatic stellate cells; test: Low molecular weight DNA fragmentation (nucleosomal ladder) in rat hepatic stellate cells; assay type: cell-based
# Protocol: Hepatic stellate cells cultured in 35-mm diameter dishes (Greiner) were harvested, pelleted by centrifugation and DNA fragmentation determined as outlined elsewhere (Elsharkawy et al., Hepatology (1999) 30:761-769). Propidium Iodide Flow-Activated Cell Sorting Analysis Detached cells were pelleted by centrifugation, washed in PBS, and resuspended in HYPO buffer (0.1% wt/vol) Na3Citrate and 0.1% (wt/vol) Triton™ X-100 containing […] propidium iodide and incubated for 1 hour. The cells were then analyzed by fluorescence-activated cell sorter (FACS) with a Becton Dickinson (San Jose, Calif.) FACScan instrument using a 488 nm excitation wavelength with a band pass filter set at 530 nm. Attached cells were scraped in HYPO buffer after washing cells with PBS.
# The effect of gliotoxin on the cleavage of DNA to a nucleosomal ladder was examined because this phenomenon is characteristic of apoptosis. Culture activated (14-day) rat hepatic stellate cells in six well plates were treated with either 0.05% (vol/vol) DMSO for four hours or 1.5 μmol/L gliotoxin for zero hours, half an hour, one hour, two hours or four hours. At each time point, both detached and attached cells were harvested together and low molecular weight DNA (20,000 g supernatant) fragmentation determined as outlined in the materials and methods section. At least three separate experiments were performed. 1 kilobase DNA ladder (Promega) was used as a molecular weight marker.
# The effect of various compounds on DNA laddering was then determined. Culture-activated (14-day) rat hepatic stellate cells in six-well plates were treated with:
# After fours hours of treatment, DNA fragmentation was determined.
# Culture activated (14 day) rat hepatic stellate cells in six well plates were treated with: • (a) 0.05% (vol/vol) DMSO; • (b) 1.5 μmol/L gliotoxin; • (c) 1.5 μmol/L gliotoxin with 100 μmol/L tamoxifen; • (d) 1.5 μmol/L gliotoxin with […] actinomycin d; • (e) 1.5 μmol/L gliotoxin with 10 μmol/L cycloheximide; • (f) 1.5 μmol/L gliotoxin with 10 μmol/L cyclosporin; • (g) 1.5 μmol/L gliotoxin with […] m-iodobenzylguanidine; • (h) 1.5 μmol/L gliotoxin with 50 μmol/L quin-2-am; • (i) 50 μmol/L guin-2-am alone; • (j) 250 μmol/L m-iodobenzylguanidine; • (k) 10 μmol/L cyclosporin; • (l) 10 μmol/L cycloheximide; • (m) 1 μg/ml actinomycin d; or • (n) 100 μmol/L tamoxifen.
# After four hours of treatment, DNA fragmentation was determined as outlined in Materials and Methods.
# hepatic stellate cells = test: Nerve growth factor induced apoptosis of hepatic stellate cells; assay type: cell-based; conditions: NGF 100 ng/ml, absolute serum deprivation
# Protocol: Apoptosis of hepatic stellate cells was induced by absolute serum deprivation, cycloheximide treatment (Issa et al., Gut (2001) 48: S48-S57), or exposure to nerve growth factor as previously described (Trim et al., Am. J. Pathol., (2000) 156, 1235-1243). Hepatic stellate cells were cultured in 24-well tissue culture plates. Rat and human hepatic stellate cells were exposed to proapoptotic stimuli with and without recombinant TIMP-1 (Biogenesis, Poole, UK) and other manipulations as detailed below. Following a 4 hour incubation at 37° C., nuclear morphology was assessed by adding acridine orange to each well (final concentration 1 μg/ml) and observing the cells under blue fluorescence. The total number of apoptotic bodies was counted, and any apoptotic bodies floating in the supernatant were included by racking up the objective lens. The total number of cells per field was counted, and an apoptotic index was calculated. Each condition was performed in duplicate, and three high power fields were counted for each well. […] To examine for autocrine effects, hepatic stellate cells were incubated for 18 hours with azide-free polyclonal neutralizing antibodies to TIMP-1 and a nonimmune IgG control (Santa Cruz Biotechnology, Inc., Santa Cruz, Calif.), and responses were assessed by acridine orange staining and counting. […]
# MMP-3 = MMP-3 (Homo sapiens, UniProt P08254); conditions: T2G versus wild type; cited from earlier work
# Sequence of MMP-3 (P08254 100-477, species assumed): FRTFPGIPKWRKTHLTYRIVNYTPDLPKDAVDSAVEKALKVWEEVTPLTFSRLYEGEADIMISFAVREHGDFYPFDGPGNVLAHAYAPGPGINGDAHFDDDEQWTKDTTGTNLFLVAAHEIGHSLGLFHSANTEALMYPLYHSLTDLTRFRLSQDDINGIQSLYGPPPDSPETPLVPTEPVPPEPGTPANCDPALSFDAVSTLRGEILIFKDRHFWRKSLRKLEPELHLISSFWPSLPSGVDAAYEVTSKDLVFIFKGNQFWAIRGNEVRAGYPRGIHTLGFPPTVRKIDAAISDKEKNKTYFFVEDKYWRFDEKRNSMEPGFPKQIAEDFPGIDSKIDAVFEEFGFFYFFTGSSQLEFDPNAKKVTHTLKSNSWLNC
# [8] = test system: rat hepatic stellate cells; test: Hepatic stellate cell apoptosis by acridine orange staining and counting (cycloheximide or serum deprivation), rat cells; assay type: cell-based; conditions: rat HSC; protein at 142.5 ng/ml
# Protocol: (§4) Human hepatic stellate cells were extracted from the margins of normal human liver resected for colonic metastatic disease as previously described (Iredale et al., Clin. Sci., (1995) 89: 75-81). Rat hepatic stellate cells were extracted from normal rat liver by Pronase and collagenase digestion and purified by centrifugal elutriation as described (Arthur et al., J. Clin. Invest., (1989) 84:1076-1085). Extracted hepatic stellate cells were cultured on plastic until they were activated to a myofibroblastic phenotype after 7 to 10 days. Human and rat hepatic stellate cells were used for experiments after activation in primary culture or before fourth passage. Cells were cultured in Dulbecco's modified Eagle's medium in the presence of 16% fetal calf serum and antibiotics.
# Apoptosis of hepatic stellate cells was induced by absolute serum deprivation, cycloheximide treatment (Issa et al., Gut (2001) 48: S48-S57), or exposure to nerve growth factor as previously described (Trim et al., Am. J. Pathol., (2000) 156, 1235-1243). Hepatic stellate cells were cultured in 24-well tissue culture plates. Rat and human hepatic stellate cells were exposed to proapoptotic stimuli with and without recombinant TIMP-1 (Biogenesis, Poole, UK) and other manipulations as detailed below. Following a 4 hour incubation at 37° C., nuclear morphology was assessed by adding acridine orange to each well (final concentration 1 μg/ml) and observing the cells under blue fluorescence. The total number of apoptotic bodies was counted, and any apoptotic bodies floating in the supernatant were included by racking up the objective lens. The total number of cells per field was counted, and an apoptotic index was calculated. Each condition was performed in duplicate, and three high power fields were counted for each well. […] To examine for autocrine effects, hepatic stellate cells were incubated for 18 hours with azide-free polyclonal neutralizing antibodies to TIMP-1 and a nonimmune IgG control (Santa Cruz Biotechnology, Inc., Santa Cruz, Calif.), and responses were assessed by acridine orange staining and counting.
# Apoptosis was assessed by acridine orange staining. […] A normal cell lies adjacent to the apoptotic body. This technique was used to determine the percentage of apoptotic hepatic stellate cells following exposure to cyclohexamide in the presence or absence of TIMP-1. Hepatic stellate cells were exposed to 50 μM cyclohexamide and 0, 1, 10, 100 or 200 ng/ml of TIMP-1. Cells treated with serum alone were used as controls. […] Bovine serum albumin, used as a carrier for the TIMP-1 had no antiapoptotic effect.
# [9] = test system: caspase-3 activity in hepatic stellate cells; test: Caspase-3 activity in cycloheximide-treated hepatic stellate cells; assay type: cell-based; conditions: wild type TIMP-1 or T2G mutant N-TIMP-1
# Protocol: Apoptosis was quantified by a colorimetric assay for caspase-3 activity (Promega) according to the manufacturer's instructions.
# Caspase-3 is a central caspase in the proapoptotic cascade (Hengartner, Nature (2000) 407, 770-776) and can be used as an alternative assay to assess apoptosis. Hepatic stellate cells were cultured in 50 μM cycloheximide with TIMP-1 at a concentration of 0, 1, 10, or 100 ng/ml. Controls where cells were incubated with either the caspase 3 inhibitor benzyloxycarbonyl-Val-Ala-Asp-fluoromethylketone or serum alone were also performed. Data are expressed as mean ±S.E. and are presented as percentage of control given the arbitrary value of 100%. * indicates p<0.001; n=3. […] Although the mean caspase-3 activity of the cells treated with 10 ng/ml TIMP-1 was slightly lower than that treated with 100 ng/ml of TIMP-1, this was not statistically significant (p=0.67 by Student's t test).
# [10] = test system: human hepatic stellate cells; test: Hepatic stellate cell apoptosis by acridine orange staining and counting (cycloheximide or serum deprivation), human cells; assay type: cell-based; conditions: human HSC; protein at 142.5 ng/ml
# Protocol: as §4
# Apoptosis of hepatic stellate cells was induced by absolute serum deprivation, cycloheximide treatment (Issa et al., Gut (2001) 48: S48-S57), or exposure to nerve growth factor as previously described (Trim et al., Am. J. Pathol., (2000) 156, 1235-1243). Hepatic stellate cells were cultured in 24-well tissue culture plates. […] Following a 4 hour incubation at 37° C., nuclear morphology was assessed by adding acridine orange to each well (final concentration 1 μg/ml) and observing the cells under blue fluorescence. The total number of apoptotic bodies was counted, and any apoptotic bodies floating in the supernatant were included by racking up the objective lens. The total number of cells per field was counted, and an apoptotic index was calculated. Each condition was performed in duplicate, and three high power fields were counted for each well. […] To examine for autocrine effects, hepatic stellate cells were incubated for 18 hours with azide-free polyclonal neutralizing antibodies to TIMP-1 and a nonimmune IgG control (Santa Cruz Biotechnology, Inc., Santa Cruz, Calif.), and responses were assessed by acridine orange staining and counting.
# Apoptosis was assessed by acridine orange staining. […]
compound,measurement,setting,value
O=C(O)c1cc(/N=N/c2ccc(S(=O)(=O)Nc3ccccn3)cc2)ccc1O [Sulfasalazine],"activity of NFκB responsive gene promoters (PGJ21 (4xNFκB), IL6 and IκBα)",[1],repressed the activity of three NFκB responsive gene promoters
same,activity of control 7×AP1 promoter,[1],but not a control 7×AP1 promoter
same,apoptosis by Acridine Orange staining,[2]; 0.5 mM,30%
same,apoptosis by Acridine Orange staining,[2]; 1 mM,45%
same,apoptosis by Acridine Orange staining,[2]; 2 mM,55%
same,caspase 3 activity,caspase 3 activity,increased caspase 3 activity in a dose-dependent manner
same,NFκB DNA binding activity,[3],dose dependently inhibited NFκB DNA binding activity
same,collagen deposition (fibrosis) versus control livers,"[4]; six weeks CCl4, 16 hours recovery",no significant difference in collagen deposition
same,collagen versus control livers,"[4]; six weeks CCl4, 72 hours recovery",significantly less collagen
same,"fibrosis score (1-4; 1 no fibrosis, 4 cirrhosis)","[4]; six weeks CCl4, 72 hours recovery, control livers 3",1.5
same,numbers of activated hepatic stellate cells versus control livers,"[4]; six weeks CCl4, treatment 24 hours later, 16 hours recovery",large reduction in numbers of activated hepatic stellate cells
"CS[C@]1(CO)C(=O)N2[C@H]3C(=CC=C[C@@H]3O)C[C@@]2(SC)C(=O)N1C [mt-glio, bis-dethio-bis(methylthio)-gliotoxin]",morphologic alterations,"[5]; culture activated (24 day) human HSC, 1.5 μmol/L",had no effect on the morphology
same,morphologic alterations,"[6]; culture activated (14 day) rat HSC, 1.5 μmol/L",had no effect on the morphology
same,cleavage of DNA to a nucleosomal ladder,"[7]; rat HSC, 1.5 μmol/L, up to four hours",did not result in the cleavage of DNA to a nucleosomal ladder
S=C(S)N1CCCC1 [pyrrolidine dithiocarbamate],effect on morphologic effects of gliotoxin,"[5]; human HSC, cotreatment with gliotoxin",blocked the morphologic effects of gliotoxin
same,effect on morphologic alterations / detachment caused by gliotoxin,"[6]; rat HSC, with 1.5 μmol/L gliotoxin, Z-VAD-FMK 100 μmol/L, PDTC 300 μmol/L, tamoxifen 100 μmol/L, m-IBG 250 (mmol/L in the source), quin-2-am 50 μmol/L",blocked the morphologic effects of gliotoxin
same,effect on gliotoxin-induced cleavage of DNA to a nucleosomal ladder,"[7]; with 1.5 μmol/L gliotoxin, four hours, PDTC 300 μmol/L, tamoxifen 100 μmol/L, m-IBG 250 (mmol/L in the source), cyclosporin 10 μmol/L, quin-2-am 50 μmol/L",blocks the cleavage of DNA to a nucleosomal ladder
"NGF: nerve growth factor, ligand of p75 on hepatic stellate cells",apoptosis in hepatic stellate cells versus BSA carrier alone,hepatic stellate cells,induced significantly more apoptosis
"T2G mutant N-TIMP-1: mutated nonfunctional TIMP-1, threonine to glycine at amino acid position 2, no MMP inhibitory activity",factor by which the mutation changes the inhibition constant of TIMP-1 for MMP-3,MMP-3,over 1000
same,apoptosis induced by cycloheximide (acridine orange),[8],had no inhibitory effect
same,caspase-3 activity in cycloheximide-treated hepatic stellate cells,[9],no effect was observed
same,apoptosis induced by cycloheximide (acridine orange),[10],had no inhibitory effect
